Where a SMILES comes first, the peptide text is derived from it. Where no end group is shown, it is not given here.
Legend:
[1] = peptides obtained after enzymatic digestion of the tuberculin-active protein; cited from earlier work
BCG-infected mice = settings: cited from earlier work
[2] = test system: Mycobacterium tuberculosis-sensitized guinea pigs; settings: cited from earlier work
[3] = test system: anti-octapeptide antiserum; type: binding, Rabbits
[4] = test system: guinea pigs sensitized with heat-killed M. bovis BCG-Pasteur; assay: Tuberculin skin test in BCG-sensitized guinea pigs; type: in vivo; settings: for skin reaction: 200 μg dose in 100 μl PBS intradermally; for skin reaction / color intensity of skin reaction: after 24 h; for color intensity of skin reaction: 200 μg dose intradermally; for enduration: 200 μg peptide intradermally
Experimental: (§1) The tuberculin tests were carried out on guinea pigs sensitized 6 weeks before with heat-killed Mycobacterium tuberculosis strain Peurois or M. bovis BCG-Pasteur.
(§2) Doses of 200 μg of the octopeptide of formula (I) or of the hexadecapeptide of formula (II) in 100 µl of PBS buffer containing Tween 80, were administered intradermally in the ventral side of guinea pigs sensitized as mentioned above.
(§3) The appearance of a delayed-type tuberculin reaction was observed 24 h and 48 h after the injection.

[5] = test system: guinea pigs sensitized with heat-killed Mycobacterium tuberculosis strain Peurois; assay: Tuberculin skin test in M. tuberculosis strain Peurois-sensitized guinea pigs; settings: 200 μg dose, after 24 h
Experimental: as §1, §2, §3

| Molecule | tuberculin activity in skin tests [1] | amount required to displace half of the label in radioimmunoassays [3] | skin reaction [4] | color intensity of skin reaction [4] | enduration [4] | further results |
| --- | --- | --- | --- | --- | --- | --- |
| DGGSESEGK [nonapeptide 61-69] | residual tuberculin activity |  |  |  |  |  |
| NGSQMRL [synthetic heptapeptide] |  |  |  |  |  | tuberculin activity (BCG-infected mice): devoid of any tuberculin activity; tuberculin activity in skin tests [2]: devoid of any tuberculin activity |
| NGSQMR [hexapeptide 70-75] | residual tuberculin activity |  |  |  |  |  |
| N[C@@H](CC(=O)O)C(=O)NCC(=O)NCC(=O)N[C@@H](CO)C(=O)N[C@@H](CCC(=O)O)C(=O)N[C@@H](CO)C(=O)N[C@@H](CCC(=O)O)C(=O)NCC(=O)O [octapeptide of formula (I), Asp-Gly-Gly-Ser-Glu-Ser-Glu-Gly] (H-DGGSESEG-OH) |  | 250 pg | 4 mm | low color intensity | little or no enduration |  |
| DGGSESEGKNGSQMRL [hexadecapeptide of formula (II)] |  | 500000 pg | 8 mm | low color intensity | little or no enduration | level of recognition relative to octapeptide of formula (I) ([3]; taking into account the molecular weight): 0.1%; enduration (average) [5]: 12 mm; erythematous area, diameter (average) [5]: 11 mm |

Source: patent publication US4460503A, “Tuberculine active peptides and a process for preparing same by chemical synthesis” (priority 1983, dated 1984)
